Data reported in patent US9902736B2, “1-oxo/acylation-14-acylated oridonin derivative, preparation method therefor and application thereof” (HANGZHOU BENSHENG PHARMACEUTICAL CO., LTD., priority 2012, dated 2018).
Converted amounts (≈) assume the structure as drawn.

Tests used:
K562/ADR = test: Leukemia cell growth inhibition, MTT, 72 h; assay type: cell-based; conditions: Homo sapiens
Description: (§1) Leukemia cell lines: leukemia cell lines: K562/adr (drug-resistant, chronic myeloid leukemia, CML), NB4 (acute promyelocytic leukemia, AML), Kasumi-1 (acute myeloid leukemia M2 type, AML-M2), Jurkat (acute lymphoblastic leukemia, ALL), all of which were donated by Cancer Research Institute of Zhejiang University, China; and H9 (acute lymphoblastic leukemia, ALL), which was purchased from China Center for Type Culture Collection.
(§2) 6000 well-growing leukemia cells were obtained and inoculated into wells of a 96-well cell culture plate. […] On the next day, the 1-oxo/acylated-14-acylated oridonin derivatives of different concentrations were added and mixed uniformly. The plate was placed in a carbon dioxide cell incubator (5% CO2) at 37° C. and was incubated for 72 hours. Then the viable cell concentration was determined by MTT method.

Kasumi-1 = test: Leukemia cell growth inhibition, MTT, 72 h; assay type: cell-based; conditions: Homo sapiens
Description: as §1, §2

H9 = test: Leukemia cell growth inhibition, MTT, 72 h; assay type: cell-based, human; conditions: Homo sapiens, H9; 72 h, MTT
Description: as §1, §2

Jurkat = test: Leukemia cell growth inhibition, MTT, 72 h; assay type: cell-based, human; conditions: Homo sapiens, Jurkat; 72 h, MTT
Description: as §1, §2

NB4 = test: Leukemia cell growth inhibition, MTT, 72 h; assay type: cell-based, human; conditions: Homo sapiens, NB-4; 72 h, MTT
Description: as §1, §2

RPMI 8226 = test: Multiple myeloma cell growth inhibition, MTT, 72 h; assay type: cell-based; conditions: Homo sapiens
Protocol: Multiple myeloma cell lines: RPMI8226 (multiple myeloma), purchased from Fuxiang Bio-tech Co. Ltd., Shanghai, China.
6000 well-growing cells were obtained and inoculated into wells of a 96-well cell culture plate. […] On the next day, the 1-oxo/acylated-14-acylated oridonin derivatives of different concentrations were added and mixed uniformly. The plate was placed in a carbon dioxide cell incubator (5% CO2) at 37° C. and incubated for 72 hours. Then the viable cell concentration was determined by MTT method.

CNE = test: Solid tumor cell growth inhibition, MTT, 72 h; assay type: cell-based, human; conditions: Homo sapiens, CNE; 72 h, MTT
Protocol: (§3) 6000 well-growing human solid tumor cells were obtained and inoculated into wells of a 96-well cell culture plate. The culture medium was DMEM High Glucose cell culture medium containing 10% fetal bovine serum. The plate was placed in a carbon dioxide cell incubator (5% CO2) at 37° C. and incubated for 24 hours. After added with 1-oxo/acylated-14-acylated oridonin derivatives of different concentration and mixed uniformly, the plate was placed in a carbon dioxide cell incubator (5% CO2) at 37° C. and incubated for 72 hours. Then the viable cell concentration was determined by MTT method.

Hela = test: Solid tumor cell growth inhibition, MTT, 72 h; assay type: cell-based, human; conditions: Homo sapiens, HeLa; 72 h, MTT
Protocol: as §3

Hep-2 = test: Solid tumor cell growth inhibition, MTT, 72 h; assay type: cell-based, human; conditions: Homo sapiens, HEp-2; 72 h, MTT
Protocol: as §3

MGC-803 = test: Solid tumor cell growth inhibition, MTT, 72 h; assay type: cell-based, human; conditions: Homo sapiens, MGC-803; 72 h, MTT
Protocol: as §3

A549 = test: Solid tumor cell growth inhibition, MTT, 72 h; assay type: cell-based; conditions: Homo sapiens
Protocol: as §3

Becap-37 = test: Solid tumor cell growth inhibition, MTT, 72 h; assay type: cell-based; conditions: Homo sapiens
Protocol: as §3

CaEs-17 = test: Solid tumor cell growth inhibition, MTT, 72 h; assay type: cell-based; conditions: Homo sapiens, CaEs17
Protocol: as §3

Hep G2 = test: Solid tumor cell growth inhibition, MTT, 72 h; assay type: cell-based; conditions: Homo sapiens, HepG2
Protocol: as §3

MG-63 = test: Solid tumor cell growth inhibition, MTT, 72 h; assay type: cell-based; conditions: Homo sapiens
Protocol: as §3

PANC-1 = test: Solid tumor cell growth inhibition, MTT, 72 h; assay type: cell-based; conditions: Homo sapiens
Protocol: as §3

PC-3 = test: Solid tumor cell growth inhibition, MTT, 72 h; assay type: cell-based; conditions: Homo sapiens
Protocol: as §3

RKO = test: Solid tumor cell growth inhibition, MTT, 72 h; assay type: cell-based; conditions: Homo sapiens
Protocol: as §3

SK-OV-3 = test: Solid tumor cell growth inhibition, MTT, 72 h; assay type: cell-based; conditions: Homo sapiens, SK-OV-3, 72 h, MTT; for IC50: read-out: IC50 SK-OV-3; for IC90: read-out: IC90 SK-OV-3
Protocol: as §3

U87-MG = test: Solid tumor cell growth inhibition, MTT, 72 h; assay type: cell-based; conditions: Homo sapiens, U-87 MG
Protocol: as §3

IC50 (K562/ADR) [µg/mL]	IC90 (K562/ADR) [µg/mL]	IC50 (Kasumi-1) [µg/mL]	IC90 (Kasumi-1) [µg/mL]	IC50 (H9) [µg/mL]	IC90 (H9) [µg/mL]	IC50 (Jurkat) [µg/mL]	IC90 (Jurkat) [µg/mL]	IC50 (NB4) [µg/mL]	IC90 (NB4) [µg/mL]	IC50 (RPMI 8226) [µg/mL]	IC90 (RPMI 8226) [µg/mL]	IC50 (CNE) [µg/mL]	IC90 (CNE) [µg/mL]	IC50 (Hela) [µg/mL]	IC90 (Hela) [µg/mL]	IC50 (Hep-2) [µg/mL]	IC90 (Hep-2) [µg/mL]	IC50 (MGC-803) [µg/mL]	IC90 (MGC-803) [µg/mL]	also measured	Structure (SMILES)
0.6 (≈ 1.29 µM)	1.73 (≈ 3.71 µM)	0.72 (≈ 1.54 µM)	1.86 (≈ 3.99 µM)	0.45 (≈ 0.965 µM)	0.95 (≈ 2.04 µM)	0.68 (≈ 1.46 µM)	2.63 (≈ 5.64 µM)	0.14 (≈ 0.3 µM)	0.47 (≈ 1.01 µM)	0.41 (≈ 0.879 µM)	1.89 (≈ 4.05 µM)	1.41 (≈ 3.02 µM)	5.45 (≈ 11.7 µM)	1.65 (≈ 3.54 µM)	4.67 (≈ 10 µM)	1.64 (≈ 3.52 µM)	7.7 (≈ 16.5 µM)	0.88 (≈ 1.89 µM)	11 (≈ 23.5 µM)	IC50 (A549): 2.6 µg/mL (≈ 5.57 µM); IC90 (A549): 6.08 µg/mL (≈ 13 µM); IC50 (Becap-37): 1.12 µg/mL (≈ 2.4 µM); IC90 (Becap-37): 3.79 µg/mL (≈ 8.12 µM); IC50 (CaEs-17): 1.21 µg/mL (≈ 2.59 µM); IC90 (CaEs-17): 5.47 µg/mL (≈ 11.7 µM); IC50 (Hep G2): 0.98 µg/mL (≈ 2.1 µM); IC90 (Hep G2): 10.6 µg/mL (≈ 22.7 µM); IC50 (MG-63): 0.47 µg/mL (≈ 1.01 µM); IC90 (MG-63): 0.99 µg/mL (≈ 2.12 µM); IC50 (PANC-1): 1.79 µg/mL (≈ 3.84 µM); IC90 (PANC-1): 6.42 µg/mL (≈ 13.8 µM); IC50 (PC-3): 1.67 µg/mL (≈ 3.58 µM); IC90 (PC-3): 3.8 µg/mL (≈ 8.15 µM); IC50 (RKO): 0.46 µg/mL (≈ 0.986 µM); IC90 (RKO): 0.94 µg/mL (≈ 2.01 µM); IC50 (SK-OV-3): 1.67 µg/mL (≈ 3.58 µM); IC90 (SK-OV-3): 3.8 µg/mL (≈ 8.15 µM); IC50 (U87-MG): 0.8 µg/mL (≈ 1.71 µM); IC90 (U87-MG): 2.36 µg/mL (≈ 5.06 µM)	C=C1C(=O)[C@]23[C@H](OC(=O)c4ccccc4)[C@H]1CC[C@H]2[C@@]12CO[C@@]3(O)[C@@H](O)[C@@H]1C(C)(C)CCC2=O [BS-OR-001]
0.71 (≈ 1.42 µM)	2.07 (≈ 4.13 µM)	0.72 (≈ 1.44 µM)	2.25 (≈ 4.49 µM)	0.83 (≈ 1.66 µM)	1.82 (≈ 3.63 µM)	0.81 (≈ 1.62 µM)	2.72 (≈ 5.43 µM)	0.22 (≈ 0.439 µM)	0.81 (≈ 1.62 µM)	0.46 (≈ 0.918 µM)	1.79 (≈ 3.57 µM)	1.93 (≈ 3.85 µM)	6.62 (≈ 13.2 µM)	1.84 (≈ 3.67 µM)	5.31 (≈ 10.6 µM)	1.85 (≈ 3.69 µM)	7.56 (≈ 15.1 µM)	1.43 (≈ 2.85 µM)	10.7 (≈ 21.4 µM)	IC50 (A549): 2.82 µg/mL (≈ 5.63 µM); IC90 (A549): 5.64 µg/mL (≈ 11.3 µM); IC50 (Becap-37): 1.12 µg/mL (≈ 2.24 µM); IC90 (Becap-37): 3.09 µg/mL (≈ 6.17 µM); IC50 (CaEs-17): 1.49 µg/mL (≈ 2.97 µM); IC90 (CaEs-17): 5.23 µg/mL (≈ 10.4 µM); IC50 (Hep G2): 1.69 µg/mL (≈ 3.37 µM); IC90 (Hep G2): 7.48 µg/mL (≈ 14.9 µM); IC50 (MG-63): 0.48 µg/mL (≈ 0.958 µM); IC90 (MG-63): 2.74 µg/mL (≈ 5.47 µM); IC50 (PANC-1): 2.34 µg/mL (≈ 4.67 µM); IC90 (PANC-1): 8.51 µg/mL (≈ 17 µM); IC50 (PC-3): 1.82 µg/mL (≈ 3.63 µM); IC90 (PC-3): 3.82 µg/mL (≈ 7.63 µM); IC50 (RKO): 0.66 µg/mL (≈ 1.32 µM); IC90 (RKO): 1.49 µg/mL (≈ 2.97 µM); IC50 (SK-OV-3): 1.82 µg/mL (≈ 3.63 µM); IC90 (SK-OV-3): 3.82 µg/mL (≈ 7.63 µM); IC50 (U87-MG): 0.99 µg/mL (≈ 1.98 µM); IC90 (U87-MG): 2.82 µg/mL (≈ 5.63 µM)	C=C1C(=O)[C@]23[C@H](OC(=O)c4ccccc4Cl)[C@H]1CC[C@H]2[C@@]12CO[C@@]3(O)[C@@H](O)[C@@H]1C(C)(C)CCC2=O [BS-OR-003]
